The values that follow come from patent US12139520B2 (priority 2020, dated 2024).

Numbered stars: 1 amine (or outer) side, 2 acyl side, 3 side chain; on linkers, the order of the positions; unused ones are H or OH. Bridge positions count the residues as written; N and C are the ends. Square brackets hold non-standard residues; d marks the D form. Peptide text beside a SMILES is read from it. * marks the point of attachment. C20 diacid = O=C(O)CCCCCCCCCCCCCCCCCCC(=O)*; γGlu = O=C(O)[C@H](CCC(=O)[*:2])N[*:1]; Hyp = O=C(O)[C@@H]1C[C@@H](O)CN1

System in one data set: not listed separately
Put plainly: Physical stability of peptide analogues (Thioflavin T fibrillation). The following applies: maximum ThT signal normalized between hAMY maximum and buffer background; 40° C., shaking, four days; pH 7 per table title. In kind it is physicochemical. The procedure:
General Protocols for Determination of Physical Stability of Peptide Analogues
Peptides were dissolved in buffers (50 mM sodium acetate at pH 4 or 50 mM sodium phosphate at pH 7) and incubated for one hour. The samples were then divided into two replicates of 80 μl in a black 384 well plate (μ-clear, Greiner Bio-One) and mixed with Thioflavin T (ThT) to a final concentration of 4 μM. The plate was sealed and placed in a plate reader (CLARIOstar, BMG) where the temperature was set at 40° C. during the course of the experiment. The samples were further stressed by shaking the plate at 700 rpm (linear) for five minutes before every measurement. The fluorescence was measured every 10 min for four days by exciting the ThT at 450 nm and measuring the emission at 480 nm. For each peptide, the ThT signal over time was smoothened using Local Polynomial Regression fitting (LOESS) as implemented in the statistical programming environment R. For the smoothened data, the maximum ThT signal was normalized in percent between the maximum ThT signal for hAMY and the buffer background.
For `CC[C@H](C)[C@H](NC(=O)[C@H](CCC(N)=O)NC(=O)[C@H](Cc1c[nH]cn1)NC(=O)[C@H](C)NC(=O)[C@H](CC(C)C)NC(=O)[C@H](CCCCN)NC(=O)[C@H](CCC(N)=O)NC(=O)[C@@H](NC(=O)[C@@H](NC(=O)[C@@H]1CSSC[C@H](NC(=O)CN)C(=O)N[C@@H](CCCNC(=N)N)C(=O)N[C@@H](Cc2ccccc2)C(=O)NCC(=O)N[C@@H]([C@@H](C)O)C(=O)N1)[C@@H](C)O)C(C)C)C(=O)N[C@@H](Cc1ccc(O)cc1)C(=O)N[C@@H](CCC(N)=O)C(=O)N[C@@H](Cc1ccccc1)C(=O)N[C@H](C(=O)N[C@@H](CC(=O)O)C(=O)N[C@@H](CCCCN)C(=O)N[C@@H](CC(=O)O)C(=O)N[C@@H](CCCCN)C(=O)N[C@@H](CC(=O)O)C(=O)N[C@@H](CC(N)=O)C(=O)N[C@H](C(=O)N[C@@H](C)C(=O)N1CCC[C@H]1C(=O)N[C@@H](CCCNC(=N)N)C(=O)N[C@@H](CO)C(=O)N[C@@H](CCCCN)C(=O)N[C@H](C(=O)N[C@@H](CO)C(=O)N1CCC[C@H]1C(=O)N[C@@H](CCC(N)=O)C(=O)NCC(=O)N[C@@H](Cc1ccc(O)cc1)C(N)=O)[C@@H](C)CC)C(C)C)[C@@H](C)O` [compound 1], the “Max ThT signal (%)” value worked out at 2.600%.
Same read-out and setting: with `CC[C@H](C)[C@H](NC(=O)[C@H](CCC(N)=O)NC(=O)[C@H](Cc1c[nH]cn1)NC(=O)[C@H](C)NC(=O)[C@H](CC(C)C)NC(=O)[C@H](CCCNC(=N)N)NC(=O)[C@H](CCC(N)=O)NC(=O)[C@@H](NC(=O)[C@@H](NC(=O)[C@@H]1CSSC[C@H](NC(=O)CN)C(=O)N[C@@H](CCCNC(=N)N)C(=O)N[C@@H]([C@@H](C)O)C(=O)NCC(=O)N[C@@H]([C@@H](C)O)C(=O)N1)[C@@H](C)O)C(C)C)C(=O)N[C@@H](Cc1ccc(O)cc1)C(=O)N[C@@H](CCC(N)=O)C(=O)N[C@@H](Cc1ccccc1)C(=O)N[C@H](C(=O)N[C@@H](CC(=O)O)C(=O)N[C@@H](CCCCN)C(=O)N[C@@H](CC(=O)O)C(=O)N[C@@H](CCCCN)C(=O)N[C@@H](CC(=O)O)C(=O)N[C@@H](CC(N)=O)C(=O)N[C@H](C(=O)N[C@@H](C)C(=O)N1CCC[C@H]1C(=O)N[C@@H](CCCNC(=N)N)C(=O)N[C@@H](CO)C(=O)N[C@@H](CCCCN)C(=O)N[C@H](C(=O)NCC(=O)N1CCC[C@H]1C(=O)N[C@@H](CCC(N)=O)C(=O)NCC(=O)N1C[C@H](O)C[C@H]1C(N)=O)C(C)C)C(C)C)[C@@H](C)O` [compound 187] (H-GCRTGTCTVQRLAHQIYQFTDKDKDNVAPRSKVGPQG[Hyp]-NH2; disulfide 2-7; N-terminus assumed) the figure was 1.600%.
As for `CC[C@H](C)[C@H](NC(=O)[C@H](CCC(N)=O)NC(=O)[C@H](Cc1c[nH]cn1)NC(=O)[C@H](C)NC(=O)[C@H](CC(C)C)NC(=O)[C@H](CCCNC(=N)N)NC(=O)[C@H](CCC(N)=O)NC(=O)[C@@H](NC(=O)[C@@H](NC(=O)[C@@H]1CSSC[C@H](NC(=O)CN)C(=O)N[C@@H](CCCNC(=N)N)C(=O)N[C@@H](Cc2ccccc2)C(=O)NCC(=O)N[C@@H]([C@@H](C)O)C(=O)N1)[C@@H](C)O)C(C)C)C(=O)N[C@@H](Cc1ccc(O)cc1)C(=O)N[C@@H](CCC(N)=O)C(=O)N[C@@H](Cc1ccccc1)C(=O)N[C@H](C(=O)N[C@@H](CC(=O)O)C(=O)N[C@@H](CCCCN)C(=O)N[C@@H](CC(=O)O)C(=O)N[C@@H](CCCCN)C(=O)N[C@@H](CC(=O)O)C(=O)N[C@@H](CC(N)=O)C(=O)N[C@H](C(=O)N[C@@H](C)C(=O)N1CCC[C@H]1C(=O)N[C@@H](CCCNC(=N)N)C(=O)N[C@@H](CO)C(=O)N[C@@H](CCCCN)C(=O)N[C@H](C(=O)N[C@@H](CO)C(=O)N1CCC[C@H]1C(=O)N[C@@H](CC(N)=O)C(=O)NCC(=O)N1C[C@H](O)C[C@H]1C(N)=O)C(C)C)C(C)C)[C@@H](C)O` [compound 175] (H-GCRFGTCTVQRLAHQIYQFTDKDKDNVAPRSKVSPNG[Hyp]-NH2; disulfide 2-7), the “Max ThT signal (%)” value stood at 3.200%.

The next data set concerns the target T1, hAMY3 receptor (Homo sapiens, UniProt O60896+P30988).
T1 sequence (P30988 25-474): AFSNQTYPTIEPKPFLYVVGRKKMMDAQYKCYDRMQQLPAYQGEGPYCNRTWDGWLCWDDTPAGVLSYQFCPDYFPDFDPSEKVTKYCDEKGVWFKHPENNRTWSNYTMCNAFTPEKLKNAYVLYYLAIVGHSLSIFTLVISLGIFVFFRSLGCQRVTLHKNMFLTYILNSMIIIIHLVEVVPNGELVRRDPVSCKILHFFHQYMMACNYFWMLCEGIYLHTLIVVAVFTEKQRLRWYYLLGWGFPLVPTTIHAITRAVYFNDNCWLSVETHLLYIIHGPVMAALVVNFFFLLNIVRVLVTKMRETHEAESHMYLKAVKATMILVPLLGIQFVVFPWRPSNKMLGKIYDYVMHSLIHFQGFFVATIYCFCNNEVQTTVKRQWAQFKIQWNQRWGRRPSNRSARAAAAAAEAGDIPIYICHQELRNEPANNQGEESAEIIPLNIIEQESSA
T1 sequence (O60896 24-148 partner): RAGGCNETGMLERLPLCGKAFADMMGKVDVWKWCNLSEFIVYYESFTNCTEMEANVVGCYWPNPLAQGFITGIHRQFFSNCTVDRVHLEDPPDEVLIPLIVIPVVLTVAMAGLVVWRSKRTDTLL
Put plainly: cAMP assay for in vitro receptor activation, hAMY3-R. Conditions: cAMP assay, hAMY3 receptor; read-out: hAMY3R EC50. Type of data set: cell-based. The gist of the method: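 Read-out is TR-FRET cAMP signal, recorded one hour after reagent addition, following 30 min room-temperature stimulation of stable hAMY3 cells with graded compound doses in casein/IBMX (0.5 mM) buffer.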
In the case of `CC(C)C[C@H](NC(=O)[C@H](CCCNC(=N)N)NC(=O)[C@H](CCC(N)=O)NC(=O)[C@@H](NC(=O)[C@@H](NC(=O)[C@@H]1CSSC[C@H](NC(=O)CN)C(=O)N[C@@H](CCCNC(=N)N)C(=O)N[C@@H](Cc2ccccc2)C(=O)NCC(=O)N[C@@H]([C@@H](C)O)C(=O)N1)[C@@H](C)O)C(C)C)C(=O)N[C@@H](C)C(=O)N[C@@H](Cc1c[nH]cn1)C(=O)N[C@@H](Cc1ccccc1)C(=O)N[C@@H](CC(C)C)C(=O)N[C@@H](Cc1ccc(O)cc1)C(=O)N[C@@H](CCC(N)=O)C(=O)N[C@@H](Cc1ccccc1)C(=O)N[C@H](C(=O)N[C@@H](CC(=O)O)C(=O)N[C@@H](CCCCN)C(=O)N[C@@H](CC(=O)O)C(=O)N[C@@H](CCCCN)C(=O)N[C@@H](CC(=O)O)C(=O)N[C@@H](CC(N)=O)C(=O)N[C@H](C(=O)N[C@@H](C)C(=O)N1CCC[C@H]1C(=O)N[C@@H](CCCNC(=N)N)C(=O)N[C@H](C(=O)N[C@@H](CC(N)=O)C(=O)N[C@H](C(=O)NCC(=O)N1CCC[C@H]1C(=O)N[C@@H](CCC(N)=O)C(=O)NCC(=O)N[C@@H](Cc1ccc(O)cc1)C(N)=O)C(C)C)[C@@H](C)O)C(C)C)[C@@H](C)O` [compound 54] (H-GCRFGTCTVQRLAHFLYQFTDKDKDNVAPRTNVGPQGY-NH2; disulfide 2-7; N-terminus assumed), the EC50 was 0.012 nM.
Regarding `CC[C@H](C)[C@H](NC(=O)[C@H](CCC(N)=O)NC(=O)[C@H](Cc1c[nH]cn1)NC(=O)[C@H](C)NC(=O)[C@H](CC(C)C)NC(=O)[C@H](CCCNC(=N)N)NC(=O)[C@H](CCC(N)=O)NC(=O)[C@@H](NC(=O)[C@@H](NC(=O)[C@@H]1CSSC[C@H](NC(=O)[C@H](CCCCN)NC(=O)CC[C@H](NC(=O)CCCCCCCCCCCCCCCCCCC(=O)O)C(=O)O)C(=O)N[C@@H](CC(N)=O)C(=O)N[C@@H](Cc2ccccc2)C(=O)N[C@@H](C)C(=O)N[C@@H]([C@@H](C)O)C(=O)N1)[C@@H](C)O)C(C)C)C(=O)N[C@@H](Cc1ccc(O)cc1)C(=O)N[C@@H](CCC(N)=O)C(=O)N[C@@H](Cc1ccccc1)C(=O)N[C@H](C(=O)N[C@@H](CC(=O)O)C(=O)N[C@@H](CCCCN)C(=O)N[C@@H](CC(=O)O)C(=O)N[C@@H](CCCCN)C(=O)N[C@@H](CC(=O)O)C(=O)N[C@@H](CC(N)=O)C(=O)N[C@H](C(=O)N[C@@H](C)C(=O)N1CCC[C@H]1C(=O)N[C@@H](CCCNC(=N)N)C(=O)N[C@H](C(=O)N[C@@H](CCC(=O)O)C(=O)N[C@H](C(=O)NCC(=O)N[C@@H](CO)C(=O)N[C@@H](CC(N)=O)C(=O)NCC(=O)N[C@@H](Cc1ccc(O)cc1)C(N)=O)C(C)C)[C@@H](C)O)C(C)C)[C@@H](C)O` [compound 370] ({C20 diacid-γGlu}-KCNFATCTVQRLAHQIYQFTDKDKDNVAPRTEVGSNGY-NH2; disulfide 2-7), the EC50 came to 0.017 nM.
The same measure, in the same setting: then `CC[C@H](C)[C@H](NC(=O)[C@H](CCC(N)=O)NC(=O)[C@H](Cc1ccc(O)cc1)NC(=O)[C@H](C)NC(=O)[C@H](CC(C)C)NC(=O)[C@H](CCCNC(=N)N)NC(=O)[C@H](CCC(N)=O)NC(=O)[C@@H](NC(=O)[C@@H](NC(=O)[C@@H]1CSSC[C@H](NC(=O)[C@H](CCCCN)NC(=O)CC[C@H](NC(=O)CCCCCCCCCCCCCCCCCCC(=O)O)C(=O)O)C(=O)N[C@@H](CC(N)=O)C(=O)N[C@@H]([C@@H](C)O)C(=O)N[C@@H](C)C(=O)N[C@@H]([C@@H](C)O)C(=O)N1)[C@@H](C)O)C(C)C)C(=O)N[C@@H](Cc1ccc(O)cc1)C(=O)N[C@@H](CCC(N)=O)C(=O)N[C@@H](Cc1ccccc1)C(=O)N[C@H](C(=O)N[C@@H](CC(=O)O)C(=O)N[C@@H](CCCCN)C(=O)N[C@@H](CC(=O)O)C(=O)N[C@@H](CCCCN)C(=O)N[C@@H](CC(=O)O)C(=O)N[C@@H](CC(N)=O)C(=O)N[C@H](C(=O)N[C@@H](C)C(=O)N1CCC[C@H]1C(=O)N1CCC[C@H]1C(=O)N[C@H](C(=O)N[C@@H](CC(N)=O)C(=O)N[C@H](C(=O)NCC(=O)N[C@@H](CO)C(=O)N[C@@H](CC(N)=O)C(=O)NCC(=O)N1C[C@H](O)C[C@H]1C(N)=O)C(C)C)[C@@H](C)O)C(C)C)[C@@H](C)O` [compound 47] ({C20 diacid-γGlu}-KCNTATCTVQRLAYQIYQFTDKDKDNVAPPTNVGSNG[Hyp]-NH2; disulfide 2-7), with 0.011 nM.
